Legend:
Format in all cases: cell-based
[1] = target: T1, human A2A receptor (Homo sapiens, UniProt P29274); experiment: Human T cells, endogenous A2A receptor, cAMP, agonist NECA; conditions: read-out: hTcell data, cAMP, IC50
Procedure, shortened: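 Pan T cells isolated from fresh human blood PBMC, endogenously expressing Gs-coupled A2A, treated with compounds. Cellular cAMP measured by HTRF after 1 h; data normalized to inhibitor control and DMSO neutral control, then curve-fitted.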

[2] = target: T1, human A2A receptor; experiment: Functional A2A receptor activity, recombinant HEK293 cells, cAMP (HTRF), agonist NECA; set-up: expressed in transfected cells; host or cells: HEK293; conditions: read-out: Functional A2A receptor activity, HEK293, cAMP, IC50
Procedure, shortened: (§1)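 Forskolin, test compounds and agonist were added together to the cells and incubated for 30 min. Cellular cAMP was then quantified by HTRF. Raw signals were normalized to an inhibitor control and a neutral DMSO control, and the normalized data were curve-fitted.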

[3] = test system: mouse Pan T cells; experiment: mTcell assay, cAMP, agonist NECA
From the text: (§2) Adenosine (Ado) in tumor microenvironment can inhibit T cell activity by signaling through A2A receptors and suppress cytokine secretion by T cells. […] Potential A2A antagonists or A2A/A2B dual antagonists can rescue T cells from this inhibition. Herein, we describe the in vitro system we established using Pan T cells from mouse spleens to screen potential A2A antagonists or A2A/A2B dual antagonists for their activity. The method described involves the use of CD3/CD28 pre-coated beads to stimulate Pan T cells purified from mouse splenocytes, combined with the addition of A2A agonist along with potential A2A or A2A/A2B dual antagonists to evaluate potentiation of T cell cytokine production.
Pan T-cells are isolated from black 6 mice by manual dissociation and purified using a Miltenyi Pan T-cell isolation kit. The isolated T-cells are activated in 96 well plates for 48 hours using anti-CD3/CD28 beads in T-cell proliferation media.
After 48 hours, the T-cells are pooled, counted and suspended in serum free media containing 0.1% BSA. The cells are plated at 50,000 cells per well in 10 ul of media and incubated for 2 hours at 37° C. Test compounds are dispensed into the wells at a 10-point dose response, starting at a concentration of 10 uM. […] The plates are incubated for 30 minutes at 37° C. and assayed for cAMP levels using the Cisbio cAMP Dynamic2 reagent kit by adding 10 ul of the kit reagents to each well. The plates are incubated for 1 hour at room temperature and the HTRF signal is read on an Envision plate reader. The raw data is analyzed in Genedata Screener and the resulting data is loaded into the database.

[4] = target: T2, human A2B receptor (Homo sapiens, UniProt P29275); experiment: Functional A2B receptor activity, recombinant HEK293 cells, cAMP (HTRF), agonist NECA; conditions: read-out: Functional A2B receptor activity, HEK293, cAMP, IC50
T2 construct: expressed in transfected cells; host or cells: HEK293
T2 sequence (P29275 1-332): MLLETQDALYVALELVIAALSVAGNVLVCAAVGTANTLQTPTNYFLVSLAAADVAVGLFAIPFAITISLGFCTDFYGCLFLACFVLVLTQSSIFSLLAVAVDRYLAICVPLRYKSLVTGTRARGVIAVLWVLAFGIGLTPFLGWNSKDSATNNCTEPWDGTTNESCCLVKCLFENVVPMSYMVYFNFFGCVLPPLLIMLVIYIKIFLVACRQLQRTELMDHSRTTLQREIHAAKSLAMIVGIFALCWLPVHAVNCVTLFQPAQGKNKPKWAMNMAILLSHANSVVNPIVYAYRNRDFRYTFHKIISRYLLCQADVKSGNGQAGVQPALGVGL
Procedure, shortened: as §1

[5] = test system: human T cells; experiment: hTcell data, IL-2 (human T cells, IL-2 readout; method not given); conditions: compounds of the present invention
[6] = target: T3, human A1 receptor (Homo sapiens, UniProt P30542); experiment: Functional A1 receptor activity, recombinant CHO cells, cAMP (HTRF), forskolin, agonist CPA; conditions: recombinant CHO cells, forskolin, agonist CPA; read-out: Functional A1 receptor activity, CHO, cAMP, IC50
T3 construct: expressed in transfected cells; host or cells: CHO
T3 sequence (P30542 1-326): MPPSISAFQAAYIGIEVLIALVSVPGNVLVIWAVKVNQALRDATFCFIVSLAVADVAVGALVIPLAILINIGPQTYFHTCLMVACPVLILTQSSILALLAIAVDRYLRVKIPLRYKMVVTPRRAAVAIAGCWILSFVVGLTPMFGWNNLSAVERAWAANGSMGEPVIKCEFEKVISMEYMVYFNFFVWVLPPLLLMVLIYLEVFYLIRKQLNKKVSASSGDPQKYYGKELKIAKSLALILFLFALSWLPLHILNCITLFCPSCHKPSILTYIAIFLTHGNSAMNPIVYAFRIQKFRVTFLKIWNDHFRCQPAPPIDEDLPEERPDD
Procedure, shortened: (§3)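 Gi-coupled readout: CHO cells expressing human A1 or A3 receptor were treated with forskolin, test compound and agonist (CPA for A1, IB-MECA for A3) for 30 min; cellular cAMP was then measured by HTRF. Data were normalized to inhibitor and DMSO controls and curve-fitted.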

[7] = target: T4, human A3 receptor (Homo sapiens, UniProt P0DMS8); experiment: Functional A3 receptor activity, recombinant CHO cells, cAMP (HTRF), forskolin, agonist IB-MECA; conditions: recombinant CHO cells, forskolin, agonist IB-MECA; read-out: Functional A3 receptor activity, CHO, cAMP, IC50
T4 construct: expressed in transfected cells; host or cells: CHO
T4 sequence (P0DMS8 1-318): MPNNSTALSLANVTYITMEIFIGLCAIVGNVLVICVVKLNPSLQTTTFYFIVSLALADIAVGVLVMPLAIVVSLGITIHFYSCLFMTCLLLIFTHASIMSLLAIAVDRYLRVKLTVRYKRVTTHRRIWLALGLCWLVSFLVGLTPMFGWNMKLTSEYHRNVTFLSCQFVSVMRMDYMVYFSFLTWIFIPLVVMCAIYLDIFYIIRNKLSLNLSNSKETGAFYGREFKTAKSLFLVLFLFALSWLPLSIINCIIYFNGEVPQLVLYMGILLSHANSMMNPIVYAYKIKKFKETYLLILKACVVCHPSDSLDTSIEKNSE
Procedure, shortened: as §3

[8] = test system: mouse Pan T cells; experiment: mTcell assay, IL-2, rescue of cytokine secretion, agonist NECA; conditions: Mus musculus, T-cell, 24 h
From the text: as §2
Briefly, mouse Pan T cells are purified from spleens of BALB/c mice using Pan T cell isolation kit Mouse II (MACS Miltenyi biotech Cat # Order no. 130-095-130) according to manufacturer's protocol. The purified T cells are seeded in Nunc™ 96-Well Polystyrene Round Bottom Microwell Plates in RPMI medium with 10% heat inactivated fetal bovine serum. The cells are rested at 37° C. for 1 h before activating with CD3/CD28 pre-coated beads (Dynabeads™ Mouse T-Activator CD3/CD28; Cat #11456D). After 30 min the cells are treated with varying doses of test antagonist(s). […] After 24 h incubation IL-2 levels in the supernatants are measured by ELISAs according to manufacturer's protocol (R&D systems Cat #DY402 (IL-2)). Once the concentrations are calculated, the difference of cytokine concentration of DMSO control and agonist alone control is calculated and the percentage of rescue by each concentration of antagonist is calculated by using Microsoft Excel. These percentages of cytokine rescue in a dose dependent manner of antagonist is plotted in GraphPad Prism software and IC50 is calculated.

T1 sequence (P29274 whole entry): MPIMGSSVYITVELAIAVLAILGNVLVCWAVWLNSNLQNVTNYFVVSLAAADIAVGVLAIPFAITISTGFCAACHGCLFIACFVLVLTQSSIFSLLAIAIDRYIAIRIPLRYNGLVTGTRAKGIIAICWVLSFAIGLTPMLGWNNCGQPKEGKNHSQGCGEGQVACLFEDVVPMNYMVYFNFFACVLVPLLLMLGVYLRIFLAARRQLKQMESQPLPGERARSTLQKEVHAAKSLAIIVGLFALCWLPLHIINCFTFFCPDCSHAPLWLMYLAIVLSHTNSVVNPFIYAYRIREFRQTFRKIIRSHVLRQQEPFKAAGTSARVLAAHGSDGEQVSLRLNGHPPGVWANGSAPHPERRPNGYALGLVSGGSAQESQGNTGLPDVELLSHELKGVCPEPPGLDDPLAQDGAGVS

| SMILES | IC50 [1] | IC50 [2] | IC50 ([3]; Mus musculus, T-cell) | IC50 [4] | IC50 ([5]; T-cell) | IC50 [6] | IC50 [7] | IC50 ([3]; mouse Pan T cells, agonist NECA 1 uM) | IC50 [5] | IC50 [8] |
| --- | --- | --- | --- | --- | --- | --- | --- | --- | --- | --- |
| COc1nc(F)c(N2CCOCC2)c2sc(NC(=O)c3ccc(-c4nnn[nH]4)cc3)nc12 [Compound 6, N-(6-Fluoro-4-methoxy-7-morpholin-4-yl-thiazolo[4,5-c]pyridin-2-yl)-4-(1H-tetrazol-5-yl)-benzamide] | < 100 nM | < 10 nM | < 100 nM | < 10 nM | < 10 nM | > 1000 nM | < 1000 nM | – | – | – |
| COc1ncc(C2=CCOCC2)c2sc(NC(=O)N3CC[C@]4(CCCOC4)C3)nc12 [Compound 24, (R)-7-Oxa-2-aza-spiro[4.5]decane-2-carboxylic acid [7-(3,6-dihydro-2H-pyran-4-yl)-4-methoxy-thiazolo[4,5-c]pyridin-2-yl]-amide] | < 10 nM | < 10 nM | – | < 100 nM | – | < 1000 nM | > 1000 nM | < 100 nM | < 10 nM | – |
| COc1nc(F)c(C2CCOCC2)c2sc(NC(=O)N3CC[C@]4(CCOC4)C3)nc12 [Compound 38, (5S)-N-[6-fluoro-4-methoxy-7-(oxan-4-yl)-[1,3]thiazolo[4,5-c]pyridin-2-yl]-2-oxa-7-azaspiro[4.4]nonane-7-carboxamide] | < 10 nM | < 10 nM | < 10 nM | < 10 nM | – | > 1000 nM | > 1000 nM | – | – | < 100 nM |
| COc1ncc(-c2cccs2)c2sc(NC(=O)N3CCC4(CCOCC4)C3)nc12 [Compound 47, 8-Oxa-2-aza-spiro[4.5]decane-2-carboxylic acid (4-methoxy-7-thiophen-2-yl-thiazolo[4,5-c]pyridin-2-yl)-amide] | < 10 nM | < 10 nM | < 100 nM | < 10 nM | – | > 1000 nM | > 1000 nM | – | – | < 100 nM |
| COc1cccc(-c2cnc(OC)c3nc(NC(=O)N4CCC5(CCOCC5)C4)sc23)c1 [Compound 54, 8-Oxa-2-aza-spiro[4.5]decane-2-carboxylic acid [4-methoxy-7-(3-methoxy-phenyl)-thiazolo[4,5-c]pyridin-2-yl]-amide] | < 10 nM | < 10 nM | < 10 nM | < 10 nM | – | > 1000 nM | > 1000 nM | – | – | < 100 nM |
| COc1ncc(C2=CCOCC2)c2sc(NC(=O)c3ccc(C(=O)N(C)C)cc3)nc12 [Compound 61, N4-[7-(3,6-dihydro-2H-pyran-4-yl)-4-methoxy-[1,3]thiazolo[4,5-c]pyridin-2-yl]-N1,N1-dimethylbenzene-1,4-dicarboxamide] | < 10 nM | < 10 nM | – | < 10 nM | – | < 1000 nM | > 1000 nM | – | – | < 100 nM |
| COc1ncc(-c2ccccc2)c2sc(NC(=O)N3CCC(N4C(=O)CCC4=O)CC3)nc12 [Compound 99, 4-(2,5-Dioxo-pyrrolidin-1-yl)-piperidine-1-carboxylic acid (4-methoxy-7-phenyl-thiazolo[4,5-c]pyridin-2-yl)-amide] | < 100 nM | < 10 nM | < 100 nM | < 10 nM | – | > 1000 nM | > 1000 nM | – | – | – |
| COc1ncc(C2=CCOCC2)c2sc(NC(=O)N3CCC(N4C(=O)CCC4=O)CC3)nc12 [Compound 100, 4-(2,5-Dioxo-pyrrolidin-1-yl)-piperidine-1-carboxylic acid [7-(3,6-dihydro-2H-pyran-4-yl)-4-methoxy-thiazolo[4,5-c]pyridin-2-yl]-amide] | < 10 nM | < 10 nM | < 100 nM | < 10 nM | – | < 1000 nM | > 1000 nM | – | – | – |
| COc1ncc(C2=CCOCC2)c2sc(NC(=O)N3CCC4(CCCNC4)C3)nc12 (centres unmarked) [Compound 102, 2,7-Diaza-spiro[4.5]decane-2-carboxylic acid [7-(3,6-dihydro-2H-pyran-4-yl)-4-methoxy-thiazolo[4,5-c]pyridin-2-yl]-amide] | < 10 nM | < 10 nM | < 10 nM | < 100 nM | – | > 1000 nM | > 1000 nM | – | – | – |
| CNc1cccc(-c2cnc(OC)c3nc(NC(=O)N4CCC5(CCOCC5)C4)sc23)c1 [Compound 112, 8-Oxa-2-aza-spiro[4.5]decane-2-carboxylic acid [4-methoxy-7-(3-methylamino-phenyl)-thiazolo[4,5-c]pyridin-2-yl]-amide] | < 10 nM | < 10 nM | < 10 nM | < 100 nM | – | > 1000 nM | > 1000 nM | – | – | – |
| COc1ncc(C2=CCOCC2)c2sc(NC(=O)N3CCC(N4C(=O)CNC4=O)CC3)nc12 [Compound 131, 4-(2,5-Dioxo-imidazolidin-1-yl)-piperidine-1-carboxylic acid [7-(3,6-dihydro-2H-pyran-4-yl)-4-methoxy-thiazolo[4,5-c]pyridin-2-yl]-amide] | < 10 nM | < 10 nM | < 100 nM | < 10 nM | – | < 1000 nM | > 1000 nM | – | – | – |
| COc1ncc(-c2ccccc2)c2sc(NC(=O)N3CCC(N4C(=O)CNC4=O)CC3)nc12 [Compound 137, 4-(2,5-Dioxo-imidazolidin-1-yl)-piperidine-1-carboxylic acid (4-methoxy-7-phenyl-thiazolo[4,5-c]pyridin-2-yl)-amide] | < 10 nM | < 10 nM | < 10 nM | < 10 nM | – | < 1000 nM | > 1000 nM | – | – | – |

From patent publication US12344623B2, “Thiazolopyridine derivatives as adenosine receptor antagonists” (Merck Patent GmbH, priority 2019, dated 2025)
